Results from the OligoGym collection.
Bases are written 5' to 3'; sugars and linkages follow in the same order, as letters with counts (s phosphorothioate, o phosphodiester; PS: all linkages phosphorothioate). The collection does not say whether C is 5-methylated. l = locked nucleic acid (LNA); d = 2'-deoxy (DNA)

Target: Tau
Assay: rat primary cortical neurons, FLIPR, 25 uM ASO

Sequence | calcium oscillation score
ATTAATTATTAAATCTTCTC (sugars l4 d12 l4, PS) | 72.6 % of control
ATTATCATCCATTCTGA (sugars l2 d11 l4, PS) | 45.6 % of control
ATTATTCTTTTTTTTTCCAC (sugars l3 d14 l3, PS) | 15.2 % of control
ATTATTTACACTGTCCT (sugars l2 d11 l4, PS) | 78.1 % of control
ATTCACACAACAAACTATT (sugars l4 d11 l4, PS) | 74.5 % of control
ATTCATAAATGACTATACTT (sugars l3 d14 l3, PS) | 68.5 % of control
ATTCATTTTACTTTACTTT (sugars l4 d11 l4, PS) | 64.6 % of control
ATTCATTTTACTTTACTTTT (sugars l4 d12 l4, PS) | 88.6 % of control
ATTCCACACATAAACAAACA (sugars l4 d12 l4, PS) | 63.8 % of control
ATTCCCAAATTCCTCATAAT (sugars l4 d14 l2, PS) | 58.6 % of control
ATTCCTTTCAATGACCA (sugars l4 d11 l2, PS) | 49.7 % of control
ATTCTCAGCACACCATT (sugars l4 d11 l2, PS) | 41.3 % of control
ATTGCAACTTTAACTCC (sugars l3 d10 l4, PS) | 62.9 % of control
ATTGTCCAGGGACCCAATCT (sugars l3 d14 l3, PS) | 50.9 % of control
ATTTAATTTATTTTTTACT (sugars l4 d11 l4, PS) | 60.1 % of control
ATTTAATTTATTTTTTACTT (sugars l4 d12 l4, PS) | 50.1 % of control
ATTTAGTCACCATCACT (sugars l3 d10 l4, PS) | 102 % of control
ATTTAGTTACTCATCC (sugars l4 d8 l4, PS) | 72.6 % of control
ATTTAGTTTTCCCACCC (sugars l2 d13 l2, PS) | 63.4 % of control
ATTTAGTTTTCCCACCCA (sugars l1 d15 l2, PS) | 48 % of control
ATTTATTAATTCATAAATGA (sugars l3 d14 l3, PS) | 46.3 % of control
ATTTATTCCATTGCTCT (sugars l2 d11 l4, PS) | 42.4 % of control
ATTTATTCTTTTTATTATTT (sugars l4 d12 l4, PS) | 59.6 % of control
ATTTCAGAGCAAAGTGACCC (sugars l3 d14 l3, PS) | 74.5 % of control
ATTTCCAAATTCACTT (sugars l3 d10 l3, PS) | 111 % of control
ATTTCCAAATTCACTTTTAC (sugars l1 d17 l2, PS) | ≥ 200 % of control

Sequence | calcium oscillation score
ATTTCCAAATTCACTTTTAC (sugars l2 d1 l2 d11 l4, PS) | 147 % of control
ATTTCCAAATTCACTTTTAC (sugars l2 d16 l2, PS) | ≥ 200 % of control
ATTTCCAAATTCACTTTTAC (sugars l3 d14 l3, PS) | ≥ 200 % of control
ATTTCCAAATTCACTTTTAC (sugars l4 d10 l2 d2 l2, PS) | 137 % of control
ATTTCCAAATTCACTTTTAC (sugars l4 d11 l5, PS) | 136 % of control
ATTTCCAAATTCACTTTTAC (sugars l5 d10 l5, PS) | ≥ 200 % of control
ATTTCCAAATTCACTTTTAC (sugars l5 d11 l4, PS) | 78.8 % of control
ATTTCCAAATTCACTTTTAC (sugars ldlllddddddddddlldll, PS) | 143 % of control
ATTTCCAAATTCACTTTTAC (sugars llddldldddddddddllll, PS) | 143 % of control
ATTTCCAAATTCACTTTTAC (sugars llddlldddddddddldlll, PS) | 112 % of control
ATTTCCAAATTCACTTTTAC (sugars llddlldddddddddlldll, PS) | 122 % of control
ATTTCCAAATTCACTTTTAC (sugars lldldldddddddddldlll, PS) | 122 % of control
ATTTCCAAATTCACTTTTAC (sugars lldllddddddddddlldll, PS) | 85.2 % of control
ATTTCCAAATTCACTTTTAC (sugars lldlldddddddddlddlll, PS) | 35.4 % of control
ATTTCCAAATTCACTTTTAC (sugars lldlldddddddddldldll, PS) | 83 % of control
ATTTCCAAATTCACTTTTAC (sugars lldlldddddddddllddll, PS) | 120 % of control
ATTTCCAAATTCACTTTTAC (sugars lllddldddddddddldlll, PS) | 125 % of control
ATTTCCAAATTCACTTTTAC (sugars lllddldddddddddlldll, PS) | 110 % of control
ATTTCCAAATTCACTTTTAC (sugars llldlddddddddddldlll, PS) | 135 % of control
ATTTCCAAATTCACTTTTAC (sugars llldldddddddddlddlll, PS) | 118 % of control
ATTTCCAAATTCACTTTTAC (sugars llldldddddddddldldll, PS) | 123 % of control
ATTTCCAAATTCACTTTTAC (sugars llldldddddddddllddll, PS) | 131 % of control
ATTTCCAAATTCACTTTTAC (sugars lllldddddddddlddldll, PS) | 110 % of control
ATTTCCAAATTCACTTTTAC (sugars lllldddddddddldlddll, PS) | 137 % of control
ATTTCTCTAATTGTCCA (sugars l4 d10 l3, PS) | 46.8 % of control
ATTTGGAAAGATGAAATTTG (sugars l3 d14 l3, PS) | 0 % of control

Sequence | calcium oscillation score
ATTTTACTACTCTCTTT (sugars l4 d9 l4, PS) | 82 % of control
ATTTTACTACTCTCTTTT (sugars l4 d10 l4, PS) | 75 % of control
ATTTTACTACTCTCTTTTC (sugars l4 d11 l4, PS) | 70.6 % of control
ATTTTACTACTCTCTTTTCT (sugars l3 d14 l3, PS) | 68 % of control
ATTTTTACCAATTTGCC (sugars l2 d11 l4, PS) | 57 % of control
CAAAACATTCTCACCAAACC (sugars l4 d14 l2, PS) | 84.8 % of control
CAAAATCCTTAATTTAACCA (sugars l4 d12 l4, PS) | 60.6 % of control
CAAACAATCCATTTATATT (sugars l4 d11 l4, PS) | 69.3 % of control
CAAACAATCCATTTATATTC (sugars l4 d12 l4, PS) | 55.5 % of control
CAAACAGGATACAGT (sugars l3 d9 l3, PS) | 49.6 % of control
CAAACCAACTCAACATTACC (sugars l4 d14 l2, PS) | 94.7 % of control
CAAACCACTCTTATTCTTT (sugars l3 d12 l4, PS) | 83.2 % of control
CAAACCACTCTTATTCTTTA (sugars l4 d13 l3, PS) | 68.5 % of control
CAAACCAGTTACCATCA (sugars l4 d9 l4, PS) | 87.7 % of control
CAAACTTTTACTCTGAC (sugars l4 d9 l4, PS) | 63.8 % of control
CAAATCAATTCTCATTTCAA (sugars l4 d12 l4, PS) | 65.7 % of control
CAACAAACATCTAAACACCT (sugars l4 d13 l3, PS) | 78.9 % of control
CAACAATCCAACCACTAA (sugars l4 d10 l4, PS) | 74.1 % of control
CAACAATCCAACCACTAAA (sugars l4 d11 l4, PS) | 89.8 % of control
CAACAGATATTCATTCC (sugars l4 d9 l4, PS) | 60.6 % of control
CAACATTTGCACTCTC (sugars l4 d8 l4, PS) | 67.7 % of control
CAACATTTGCACTCTCT (sugars l2 d11 l4, PS) | 53 % of control
CAACTCAAACACTAACTT (sugars l4 d10 l4, PS) | 64.5 % of control
CAACTCAACATTACCCTTA (sugars l4 d13 l2, PS) | 81.1 % of control
CAACTCAACATTACCCTTAA (sugars l3 d14 l3, PS) | 68 % of control
CAACTCTTAGCATCCACT (sugars l2 d14 l2, PS) | 51.6 % of control

Sequence | calcium oscillation score
CAACTCTTTGAACACCC (sugars l4 d11 l2, PS) | 76.8 % of control
CAACTCTTTGAACACCCC (sugars l2 d14 l2, PS) | 91.6 % of control
CAACTGATTCCATCACC (sugars l4 d11 l2, PS) | 87.8 % of control
CAACTGGTTTGTAGAC (sugars l3 d10 l3, PS) | 42.9 % of control
CAACTGGTTTGTAGACTATT (sugars l3 d14 l3, PS) | 6.64 % of control
CAACTTTCATCTACTTTTCA (sugars l3 d14 l3, PS) | 94.4 % of control
CAAGAGGCACAAGT (sugars l3 d8 l3, PS) | 36.2 % of control
CAAGAGGCACAAGTC (sugars l3 d9 l3, PS) | 112 % of control
CAAGAGTCACTGCACTGCAT (sugars l3 d14 l3, PS) | 50 % of control
CAATCCATTTATATTCTTTT (sugars l4 d12 l4, PS) | 63.2 % of control
CAATCCTAAACAATGC (sugars l4 d8 l4, PS) | 45.4 % of control
CAATCCTAAACAATGCC (sugars l2 d11 l4, PS) | 41.8 % of control
CAATTAACCGAACTGC (sugars l3 d10 l3, PS) | 89.7 % of control
CAATTCTCAGCACACCA (sugars l4 d11 l2, PS) | 22.5 % of control
CAATTCTCATTTCAACCTTC (sugars l2 d14 l4, PS) | 54.1 % of control
CAATTTGGAAAGATGAAATT (sugars l3 d14 l3, PS) | 3.89 % of control
CACAAACCAACTCAACATTA (sugars l4 d13 l3, PS) | 82.7 % of control
CACAACCCAAGATTCC (sugars l3 d10 l3, PS) | 58.8 % of control
CACAAGTCCTTACAAA (sugars l3 d10 l3, PS) | 194 % of control
CACATGCACCCAACTCTA (sugars l2 d13 l3, PS) | 60.2 % of control
CACATGCTCACACACCAC (sugars l2 d13 l3, PS) | 97.5 % of control
CACATTTGCAAACCACA (sugars l3 d10 l4, PS) | 67.4 % of control
CACCACAGTCTTTTAAT (sugars l4 d10 l3, PS) | 73.7 % of control
CACCACTTTAATCTGCCT (sugars l2 d14 l2, PS) | 41.1 % of control
CACCATCCAAGTCAATGCCT (sugars l3 d14 l3, PS) | 24.2 % of control
CACCCAAACTCCAAGTTC (sugars l4 d12 l2, PS) | 53.9 % of control
